Experiment: in vitro
Settings: human, hela cells, % viability
Molecule O=C1c2cccc3cccc(c23)C(=O)N1CC1CCN(CC(O)COCC2COc3ccccc3O2)CC1 (stereo not shown) [CBK074412C] has a viability at 28.5 h, 10 µM of 100%. Molecule COc1c(S(=O)(=O)N2CCN(Cc3ccc4c(c3)OCO4)CC2)ccc(Cl)c1Cl [CBK074423] has a viability at 28.5 h, 10 µM of 91.8%. In the case of C=CCOc1c(CNc2cccc(C(=O)O)c2)cccc1OC [CBK074432], the viability at 28.5 h, 10 µM is reported as 95.6%. COc1ccc(S(=O)(=O)N2CCN(Cc3ccc4c(c3)OCO4)CC2)c(Cl)c1Cl [CBK074433] gave a viability at 28.5 h, 10 µM of 102%. With O=C(/C=C/c1ccc(Br)cc1)N1CCN(Cc2ccc3c(c2)OCO3)CC1 [CBK074434] the viability at 28.5 h, 10 µM was 91.5%. With CC(Oc1ccc(Cl)cc1Cl)C(=O)N1CCN(Cc2ccc3c(c2)OCO3)CC1 (stereo not shown) [CBK074438] the viability at 28.5 h, 10 µM was 95.2%. COc1cccc(/C=N/N2C(=O)c3ccc([N+](=O)[O-])cc3NC2c2cccc(OC)c2O)c1O (stereo not shown) [CBK074439] gave a viability at 28.5 h, 10 µM of 91.3%. With CCOc1cc2c(cc1OCC)C(c1ccc(OC)c(O)c1)NCC2 (stereo not shown) [CBK074443C] the viability at 28.5 h, 10 µM was 88.7%. In the case of N#CCC(=O)N1CCN(Cc2ccc3c(c2)OCO3)CC1 [CBK074447], the viability at 28.5 h, 10 µM is reported as 88.7%. Molecule COc1cc(CN2CCN(Cc3cccc4ccccc34)CC2)c([N+](=O)[O-])cc1OC [CBK074450G] has a viability at 28.5 h, 10 µM of 106%. Molecule COc1ccc(NCc2cc(I)c(OCc3ccccc3)c(OC)c2)cc1 [CBK074452] has a viability at 28.5 h, 10 µM of 106%. Work on COc1ccc(-c2csc(Nc3ccc(N)cc3)n2)cc1OC [CBK074456] yielded a viability at 28.5 h, 10 µM of 83.4%. In the case of Cc1ccc(CNc2oc(COc3ccc(Br)cc3)nc2C#N)cc1 [CBK074467], the viability at 28.5 h, 10 µM is reported as 99.5%. Molecule C=CCOc1ccc(CNc2cccc(C(=O)O)c2)cc1OC [CBK074468] has a viability at 28.5 h, 10 µM of 98.5%. For COc1cc(CNc2ccc(N3CCCCC3)cc2)ccc1OCc1ccccc1F [CBK074472], the viability at 28.5 h, 10 µM was 95.5%. COc1ccc(CNCc2cccc(OC)c2OC)cc1Br [CBK074479] showed a viability at 28.5 h, 10 µM of 113%. For COc1ccc(CN2CCN(S(C)(=O)=O)CC2)c(OC)c1OC [CBK074491], the viability at 28.5 h, 10 µM was 102%. In the case of COc1cc(OC)c(OC)cc1CN1CCN(Cc2ccco2)CC1 [CBK074509G], the viability at 28.5 h, 10 µM is reported as 92.9%. In the case of COc1cc(CNc2ccc(N3CCOCC3)cc2)ccc1OCc1ccc(Cl)cc1Cl [CBK074516], the viability at 28.5 h, 10 µM is reported as 93.1%. COC(=O)c1ccc(CN2CCN(CCN3C(=O)c4cccc5cccc(c45)C3=O)CC2)cc1 [CBK074518] gave a viability at 28.5 h, 10 µM of 88.8%. For COc1cc(CN2CCN(Cc3ccco3)CC2)cc(OC)c1OC [CBK074520G], the viability at 28.5 h, 10 µM was 88.2%. Molecule COc1ccc(CN2CCN(C(=O)c3cccc(F)c3)CC2)c(OC)c1OC [CBK074523] has a viability at 28.5 h, 10 µM of 95.5%. CCOc1cccc(CNc2ccc(O)cc2)c1OCc1ccc(Cl)cc1Cl [CBK074528] gave a viability at 28.5 h, 10 µM of 106%. In the case of O=C1CC(N2CCN(Cc3ccc4c(c3)OCO4)CC2)C(=O)N1CCc1ccccc1 (stereo not shown) [CBK074541], the viability at 28.5 h, 10 µM is reported as 93.7%. Molecule O=C1CC(N2CCN(Cc3ccc4c(c3)OCO4)CC2)C(=O)N1c1ccc(Cl)c(Cl)c1 (stereo not shown) [CBK074549] has a viability at 28.5 h, 10 µM of 99.4%. O=C1CC(N2CCN(Cc3ccc4c(c3)OCO4)CC2)C(=O)N1c1cc(Cl)cc(Cl)c1 (stereo not shown) [CBK074554] gave a viability at 28.5 h, 10 µM of 94.5%. In the case of COc1ccc(CCN2C(=O)CC(N3CCN(Cc4ccc5c(c4)OCO5)CC3)C2=O)cc1OC (stereo not shown) [CBK074555], the viability at 28.5 h, 10 µM is reported as 88%. O=[N+]([O-])c1ccc(CN2CCN(Cc3ccc4c(c3)OCO4)CC2)o1 [CBK074557] gave a viability at 28.5 h, 10 µM of 88.7%. For CSc1ncc(CNCc2ccc3c(c2)OCO3)c(N)n1 [CBK074563], the viability at 28.5 h, 10 µM was 89.6%. Work on COc1ccc(CNC(=O)c2sc3nc4c(c(C(F)(F)F)c3c2N)CCC4)cc1OC [CBK074568] yielded a viability at 28.5 h, 10 µM of 85.7%. For O=C(O)c1ccc(N2C(=O)CC(N3CCN(Cc4ccc5c(c4)OCO5)CC3)C2=O)cc1 (stereo not shown) [CBK074573], the viability at 28.5 h, 10 µM was 87.1%. For O=S(=O)(c1cccc(C(F)(F)F)c1)N1CCN(Cc2ccc3c(c2)OCO3)CC1 [CBK074594], the viability at 28.5 h, 10 µM was 89.8%. O=S(=O)(c1c(F)cccc1F)N1CCN(Cc2ccc3c(c2)OCO3)CC1 [CBK074600] gave a viability at 28.5 h, 10 µM of 91.5%. With COc1cc(CN2CCN(C(=O)c3cccc(F)c3)CC2)cc(OC)c1O [CBK074633] the viability at 28.5 h, 10 µM was 95.2%. With OC(COc1ccc(OC(F)(F)F)cc1)CN1CCN(c2nc3ccc(Cl)cc3s2)CC1 (stereo not shown) [CBK074639] the viability at 28.5 h, 10 µM was 122%. In the case of OC(CNC1CCN(Cc2ccccc2)CC1)COc1ccc2c(c1)OCO2 (stereo not shown) [CBK074645], the viability at 28.5 h, 10 µM is reported as 96.5%. In the case of O=[N+]([O-])c1ccc(OCC(O)CN2CCCN(c3nc4ccc(Cl)cc4s3)CC2)cc1 (stereo not shown) [CBK074647], the viability at 28.5 h, 10 µM is reported as 85.9%. In the case of O=C1CC2(CCCC2)C(=O)N1c1ccc(S(=O)(=O)NC2CCN(Cc3ccccc3)CC2)cc1Cl [CBK074650], the viability at 28.5 h, 10 µM is reported as 99.8%. Work on O=C(NCCCN1CCN(Cc2ccccc2)CC1)c1cn2cc(C(F)(F)F)cc(Cl)c2n1 [CBK074654] yielded a viability at 28.5 h, 10 µM of 89.3%. In the case of COc1cc2c(cc1OC)C(C)N(Cc1cc(C)c(O)c(C)c1)CC2 (stereo not shown) [CBK074659C], the viability at 28.5 h, 10 µM is reported as 99.9%. Work on COc1ccc(CCN2CN=C(SCc3ccc(Cl)cc3)NC2)cc1OC [CBK074665C] yielded a viability at 28.5 h, 10 µM of 95.3%. For OC(COc1cccc(C(F)(F)F)c1)CN1CCN(c2nc(-c3ccccc3)ns2)CC1 (stereo not shown) [CBK074678], the viability at 28.5 h, 10 µM was 93%.

Same assay, conditions: human, hela cells, % viability, bulk resorufin, single well
For c1cc2c(cc1CCNCc1ccc3c(c1)OCO3)OCO2 [CBK074501G], the viability at 28.5 h, 10 µM was 98.9%.

Reference: paper PMC12040169 (PLOS Biology, 2025)
